Measured values as given in US20250263390A1, “NOVEL SUBSTITUTED 6,7-DIHYDRO-5H-BENZO[7]ANNULENE COMPOUNDS AND THEIR DERIVATIVES, PROCESSES FOR THEIR PREPARATION AND THERAPEUTIC USES THEREOF” (SANOFI, priority 2022, published 2025).

Target: T1, ERα (Homo sapiens, UniProt P03372)
T1 construct: host or cells: MCF7
T1 sequence (P03372 1-595): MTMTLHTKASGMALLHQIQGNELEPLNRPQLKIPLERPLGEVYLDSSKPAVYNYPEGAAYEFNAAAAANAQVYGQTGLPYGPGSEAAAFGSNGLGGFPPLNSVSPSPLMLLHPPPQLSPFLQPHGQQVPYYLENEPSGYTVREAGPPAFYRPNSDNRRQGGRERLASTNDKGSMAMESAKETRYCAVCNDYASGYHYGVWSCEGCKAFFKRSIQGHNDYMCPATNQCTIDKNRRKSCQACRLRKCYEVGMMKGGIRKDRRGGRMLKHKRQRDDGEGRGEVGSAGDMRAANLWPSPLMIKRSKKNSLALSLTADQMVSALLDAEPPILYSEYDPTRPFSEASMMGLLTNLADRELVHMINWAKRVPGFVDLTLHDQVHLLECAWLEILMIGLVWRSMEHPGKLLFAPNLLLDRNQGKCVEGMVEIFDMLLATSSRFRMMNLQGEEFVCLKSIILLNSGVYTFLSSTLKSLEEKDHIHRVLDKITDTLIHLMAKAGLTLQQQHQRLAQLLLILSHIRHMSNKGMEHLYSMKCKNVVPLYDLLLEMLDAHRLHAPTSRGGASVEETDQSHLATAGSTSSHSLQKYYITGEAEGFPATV
Assay: Estrogen receptor degradation activity: breast cancer cell ERα in cell western assay
Format: cell-based
Conditions: MCF7 cells, 4 hours, relative to fulvestrant 0.1 μM positive control
Description: Test: Estrogen Receptor Degradation Activity Said test involves measuring the in vitro degradation activity of the compounds of the Table 1a. The measurements of the degradation activities were made using a breast cancer cell ERα in cell western assay as described hereunder. MCF7 cells (ATCC) were seeded in 384 wells microplate (collagen coated) at a concentration of 10000 cells/30 μL per well in red phenol free MEM alpha medium (invitrogen) containing 5% charcoal dextran striped FBS. The following day, 9 points serial 1:5 dilution of each compound was added to the cells in 2.5p L at final concentrations ranging from 0.3-0.0000018 μM (in table 2), or 0.1 μM for fulvestrant (using as positive control). At 4 hours post compound addition the cells were fixed by adding 25 μL of formalin (final concentration 5% formalin containing 0.1% triton) for 10 minutes at room temperature and then washed twice with PBS. Then, 50 μL of LI-COR blocking buffer containing 0.1% Triton was added to plate for 30 minutes at room temperature. LI-COR blocking buffer was removed and cells were incubated overnight at cold room with 50 μL anti-ER rabbit monoclonal antibody (Thermo scientific MA1-39540) diluted at 1:1000 in LI-COR blocking buffer containing 0.1% tween-20. Wells which were treated with blocking buffer but no antibody were used as background control. Wells were washed twice with PBS (0.1% tween-20) and incubated at 37° C. for 60 minutes in LI-COR (0.1% tween-20) containing goat anti-rabbit antibody Alexa 488 (1:1000) and Syto-64 a DNA dye (2 μM final concentration). Cells were then washed 3 times in PBS and scanned in ACUMEN explorer (TTP-Labtech). Integrated intensities in the green fluorescence and red fluorescence were measured to determine the levels of ERα and DNA respectively. The degradation activity with respect to estrogen receptors in this test is given by the concentration which degrades 50% of the estrogen receptor (or IC50) in nM. The % of ERα levels decrease were determined as follows: % inhibition=100*(1−(sample−fulvestrant: DMSO−fulvestrant)).

Row | Structure (SMILES) | % Degradation At 0.3 μM [%]
1 | O=C(O)c1ccc2c(c1)CCCC(c1cccc(Cl)c1OC(F)(F)F)=C2c1ccc(CC2CN(CCCF)C2)cc1 [Compound 5, 8-(3-chloro-2-(trifluoromethoxy)phenyl)-9-(4-((1-(3-fluoropropyl)azetidin-3-yl)methyl)phenyl)-6,7-dihydro-5H-benzo[7]annulene-3-carboxylic acid] | 87
2 | COc1ccc(C(F)(F)F)cc1C1=C(c2ccc(CC3CN(CCCF)C3)cc2)c2ccc(C(=O)O)cc2CCC1.Cl [Compound 28, 9-(4-((1-(3-fluoropropyl)azetidin-3-yl)methyl)phenyl)-8-(2-methoxy-5-(trifluoromethyl)phenyl)-6,7-dihydro-5H-benzo[7]annulene-3-carboxylic acid, hydrochloride] | 80
3 | COc1ccc(C2=C(c3ccc(CC4CN(CCCF)C4)cc3)c3ccc(C(=O)O)cc3CCC2)c(C(F)F)c1 [Compound 24, 8-(2-(difluoromethyl)-4-methoxyphenyl)-9-(4-((1-(3-fluoropropyl)azetidin-3-yl)methyl)phenyl)-6,7-dihydro-5H-benzo[7]annulene-3-carboxylic acid] | 92
4 | C=Cc1c(F)cccc1C1=C(c2ccc(CC3CN(CCCF)C3)cc2)c2ccc(C(=O)O)cc2CCC1 [Compound 36, 8-(3-fluoro-2-vinylphenyl)-9-(4-((1-(3-fluoropropyl)azetidin-3-yl)methyl)phenyl)-6,7-dihydro-5H-benzo[7]annulene-3-carboxylic acid] | 92
5 | Cc1c(OC(F)(F)F)cccc1C1=C(c2ccc(CC3CN(CCCF)C3)cc2)c2ccc(C(=O)O)cc2CCC1 [Compound 6, 9-(4-((1-(3-fluoropropyl)azetidin-3-yl)methyl)phenyl)-8-(2-methyl-3-(trifluoromethoxy)phenyl)-6,7-dihydro-5H-benzo[7]annulene-3-carboxylic acid] | 90
6 | Cc1ccc(C(F)(F)F)c(C2=C(c3ccc(CC4CN(CCCF)C4)cc3)c3ccc(C(=O)O)cc3CCC2)c1.Cl [Compound 20, 9-(4-((1-(3-fluoropropyl)azetidin-3-yl)methyl)phenyl)-8-(5-methyl-2-(trifluoromethyl)phenyl)-6,7-dihydro-5H-benzo[7]annulene-3-carboxylic acid, hydrochloride] | 91
7 | O=C(O)c1ccc2c(c1)CCCC(C1CC(CO)C1)=C2c1ccc(CC2CN(CCCF)C2)cc1 (stereo not drawn) [Compound 21, 9-(4-((1-(3-fluoropropyl)azetidin-3-yl)methyl)phenyl)-8-(3-(hydroxymethyl)cyclobutyl)-6,7-dihydro-5H-benzo[7]annulene-3-carboxylic acid] | 100
8 | Cc1cc(C2=C(c3ccc(CC4CN(CCCF)C4)cc3)c3ccc(C(=O)O)cc3CCC2)cc(C(F)(F)F)c1.Cl [Compound 34, 9-(4-((1-(3-fluoropropyl)azetidin-3-yl)methyl)phenyl)-8-(3-methyl-5-(trifluoromethyl)phenyl)-6,7-dihydro-5H-benzo[7]annulene-3-carboxylic acid, hydrochloride] | 90
9 | Cc1cccc(Cl)c1C1=C(c2ccc(CC3CN(CCCF)C3)cc2)c2ccc(C(=O)O)cc2CCC1.Cl [Compound 40, 8-(2-chloro-6-methylphenyl)-9-(4-((1-(3-fluoropropyl)azetidin-3-yl)methyl)phenyl)-6,7-dihydro-5H-benzo[7]annulene-3-carboxylic acid, hydrochloride] | 91
10 | CCc1c(Cl)cccc1C1=C(c2ccc(CC3CN(CCCF)C3)cc2)c2ccc(C(=O)O)cc2CCC1 [Compound 38, 8-(3-chloro-2-ethylphenyl)-9-(4-((1-(3-fluoropropyl)azetidin-3-yl)methyl)phenyl)-6,7-dihydro-5H-benzo[7]annulene-3-carboxylic acid] | 92
11 | O=C(O)c1ccc2c(c1)CCCC(c1ccc(C(F)(F)F)cc1C(F)(F)F)=C2c1ccc(CC2CN(CCCF)C2)cc1 [Compound 39, 8-(2,4-bis(trifluoromethyl)phenyl)-9-(4-((1-(3-fluoropropyl)azetidin-3-yl)methyl)phenyl)-6,7-dihydro-5H-benzo[7]annulene-3-carboxylic acid] | 95
12 | CC1(C)CCC(C2=C(c3ncc(CC4CN(CCCF)C4)cc3F)c3ccc(C(=O)O)cc3CCC2)CC1 [Compound 10, 8-(4,4-dimethylcyclohexyl)-9-(3-fluoro-5-((1-(3-fluoropropyl)azetidin-3-yl)methyl)pyridin-2-yl)-6,7-dihydro-5H-benzo[7]annulene-3-carboxylic acid] | 83
13 | COc1cccc(C2=C(c3ccc(CC4CN(CCCF)C4)cc3)c3ccc(C(=O)O)cc3CCC2)c1C(F)F [Compound 8, 8-(2-(difluoromethyl)-3-methoxyphenyl)-9-(4-((1-(3-fluoropropyl)azetidin-3-yl)methyl)phenyl)-6,7-dihydro-5H-benzo[7]annulene-3-carboxylic acid] | 89

Now from value to molecule:

Row | % Degradation At 0.3 μM [%] | Structure (SMILES)
14 | 95 | COc1cc(C)c(C2=C(c3ccc(CC4CN(CCCF)C4)cc3)c3ccc(C(=O)O)cc3CCC2)c(C)c1 [Compound 55, 9-(4-((1-(3-fluoropropyl)azetidin-3-yl)methyl)phenyl)-8-(4-methoxy-2,6-dimethylphenyl)-6,7-dihydro-5H-benzo[7]annulene-3-carboxylic acid]
15 | 93 | COc1cccc(C2=C(c3ccc(CC4CN(CCCF)C4)cc3)c3ccc(C(=O)O)cc3CCC2)c1OC [Compound 46, 8-(2,3-dimethoxyphenyl)-9-(4-((1-(3-fluoropropyl)azetidin-3-yl)methyl)phenyl)-6,7-dihydro-5H-benzo[7]annulene-3-carboxylic acid]
16 | 92 | Cc1ccc(C2=C(c3ccc(CC4CN(CCCF)C4)cc3)c3ccc(C(=O)O)cc3CCC2)c(C)c1F [Compound 57, 8-(3-fluoro-2,4-dimethylphenyl)-9-(4-((1-(3-fluoropropyl)azetidin-3-yl)methyl)phenyl)-6,7-dihydro-5H-benzo[7]annulene-3-carboxylic acid]
17 | 92 | COc1cccc(OC)c1C1=C(c2ccc(CC3CN(CCCF)C3)cc2)c2ccc(C(=O)O)cc2CCC1.Cl [Compound 51, 8-(2,6-dimethoxyphenyl)-9-(4-((1-(3-fluoropropyl)azetidin-3-yl)methyl)phenyl)-6,7-dihydro-5H-benzo[7]annulene-3-carboxylic acid, hydrochloride]
18 | 92 | O=C(O)c1ccc2c(c1)CCCC(c1c(F)cccc1OC(F)(F)F)=C2c1ccc(CC2CN(CCCF)C2)cc1 [Compound 43, 8-(2-fluoro-6-(trifluoromethoxy)phenyl)-9-(4-((1-(3-fluoropropyl)azetidin-3-yl)methyl)phenyl)-6,7-dihydro-5H-benzo[7]annulene-3-carboxylic acid]
19 | 88 | Cc1cc(C)c(C2=C(c3ccc(CC4CN(CCCF)C4)cc3)c3ccc(C(=O)O)cc3CCC2)c(Cl)c1 [Compound 53, 8-(2-chloro-4,6-dimethylphenyl)-9-(4-((1-(3-fluoropropyl)azetidin-3-yl)methyl)phenyl)-6,7-dihydro-5H-benzo[7]annulene-3-carboxylic acid]
20 | 92 | CCc1ccc(C2=C(c3ccc(CC4CN(CCCF)C4)cc3)c3ccc(C(=O)O)cc3CCC2)c(C(F)(F)F)c1 [Compound 70, 8-(4-ethyl-2-(trifluoromethyl)phenyl)-9-(4-((1-(3-fluoropropyl)azetidin-3-yl)methyl)phenyl)-6,7-dihydro-5H-benzo[7]annulene-3-carboxylic acid]
21 | 95 | Cc1ccc(C2=C(c3ccc(CC4CN(CCCF)C4)cc3)c3ccc(C(=O)O)cc3CCC2)cc1O [Compound 56, 9-(4-((1-(3-fluoropropyl)azetidin-3-yl)methyl)phenyl)-8-(3-hydroxy-4-methylphenyl)-6,7-dihydro-5H-benzo[7]annulene-3-carboxylic acid]
